Assay results published in US8658693B2, “4-aminobenzonitrile selective androgen receptor modulators” (Eli Lilly and Company, priority 2011, dated 2014).
Where two headings read alike, the source gives them in different places.

Tests used:
[1] = molecular target: T1, human GR (glucocorticoid receptor) (Homo sapiens, UniProt P04150); assay: Steroid hormone nuclear receptor binding assay, GR
T1 construct: expressed in transfected cells; host or cells: HEK293
T1 sequence (P04150 1-777): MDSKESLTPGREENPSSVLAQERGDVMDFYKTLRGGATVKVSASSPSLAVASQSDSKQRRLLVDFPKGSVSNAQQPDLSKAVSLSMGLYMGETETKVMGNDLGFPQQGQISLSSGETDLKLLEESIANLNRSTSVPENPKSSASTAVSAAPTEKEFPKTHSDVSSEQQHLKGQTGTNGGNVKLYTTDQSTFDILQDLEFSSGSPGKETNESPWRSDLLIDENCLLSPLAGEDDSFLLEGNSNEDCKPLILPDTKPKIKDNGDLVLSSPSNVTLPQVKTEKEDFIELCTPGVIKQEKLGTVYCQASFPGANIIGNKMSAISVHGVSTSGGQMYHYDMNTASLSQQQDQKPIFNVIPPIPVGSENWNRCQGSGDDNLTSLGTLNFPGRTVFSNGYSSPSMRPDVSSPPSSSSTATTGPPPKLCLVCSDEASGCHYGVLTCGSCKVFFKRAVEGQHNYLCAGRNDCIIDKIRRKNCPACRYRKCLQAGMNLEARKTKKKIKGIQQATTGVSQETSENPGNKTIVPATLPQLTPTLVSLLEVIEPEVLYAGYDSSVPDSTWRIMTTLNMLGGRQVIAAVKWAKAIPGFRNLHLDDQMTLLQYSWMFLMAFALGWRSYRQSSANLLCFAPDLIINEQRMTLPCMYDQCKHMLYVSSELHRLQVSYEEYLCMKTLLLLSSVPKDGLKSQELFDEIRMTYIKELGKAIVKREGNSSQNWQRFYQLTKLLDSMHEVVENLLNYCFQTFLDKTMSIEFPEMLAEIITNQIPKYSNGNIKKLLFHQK

[2] = tested on: HDL cholesterol in Cynomolgus monkeys; settings: transdermal delivery
[3] = molecular target: T2, human AR (androgen receptor) (Homo sapiens, UniProt P10275); assay: Steroid hormone nuclear receptor binding assay, AR; settings: HEK293 lysate, [3H]-methyltrienolone
T2 construct: expressed in transfected cells; host or cells: HEK293
T2 sequence (P10275 1-920): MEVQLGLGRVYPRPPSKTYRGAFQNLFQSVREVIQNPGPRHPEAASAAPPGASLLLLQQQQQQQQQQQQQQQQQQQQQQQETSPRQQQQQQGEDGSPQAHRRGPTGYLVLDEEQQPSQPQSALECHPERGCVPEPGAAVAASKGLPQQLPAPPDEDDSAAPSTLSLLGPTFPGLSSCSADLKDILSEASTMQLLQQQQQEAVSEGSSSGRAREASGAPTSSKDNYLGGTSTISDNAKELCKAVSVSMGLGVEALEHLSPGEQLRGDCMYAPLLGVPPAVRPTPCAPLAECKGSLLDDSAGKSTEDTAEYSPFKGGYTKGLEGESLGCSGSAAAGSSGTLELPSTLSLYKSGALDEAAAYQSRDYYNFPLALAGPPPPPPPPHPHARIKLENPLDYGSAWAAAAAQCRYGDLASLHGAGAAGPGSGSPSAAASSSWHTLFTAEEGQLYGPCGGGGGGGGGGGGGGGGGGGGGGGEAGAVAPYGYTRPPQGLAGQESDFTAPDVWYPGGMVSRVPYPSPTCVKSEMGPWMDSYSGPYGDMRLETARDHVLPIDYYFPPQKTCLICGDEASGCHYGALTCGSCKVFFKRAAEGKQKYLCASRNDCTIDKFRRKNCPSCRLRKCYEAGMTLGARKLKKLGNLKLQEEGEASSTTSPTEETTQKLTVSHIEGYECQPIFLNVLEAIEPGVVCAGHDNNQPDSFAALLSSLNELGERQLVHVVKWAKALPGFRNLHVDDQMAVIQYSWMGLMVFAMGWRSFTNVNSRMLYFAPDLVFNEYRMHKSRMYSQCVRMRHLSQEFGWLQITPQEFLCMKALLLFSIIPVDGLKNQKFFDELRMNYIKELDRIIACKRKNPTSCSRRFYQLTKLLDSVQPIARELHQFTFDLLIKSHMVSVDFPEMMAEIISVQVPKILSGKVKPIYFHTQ

[4] = molecular target: T3, human MR (mineralocorticoid receptor) (Homo sapiens, UniProt P08235); assay: Steroid hormone nuclear receptor binding assay, MR; settings: HEK293 lysate, [3H]-aldosterone
T3 construct: expressed in transfected cells; host or cells: HEK293
T3 sequence (P08235 1-984): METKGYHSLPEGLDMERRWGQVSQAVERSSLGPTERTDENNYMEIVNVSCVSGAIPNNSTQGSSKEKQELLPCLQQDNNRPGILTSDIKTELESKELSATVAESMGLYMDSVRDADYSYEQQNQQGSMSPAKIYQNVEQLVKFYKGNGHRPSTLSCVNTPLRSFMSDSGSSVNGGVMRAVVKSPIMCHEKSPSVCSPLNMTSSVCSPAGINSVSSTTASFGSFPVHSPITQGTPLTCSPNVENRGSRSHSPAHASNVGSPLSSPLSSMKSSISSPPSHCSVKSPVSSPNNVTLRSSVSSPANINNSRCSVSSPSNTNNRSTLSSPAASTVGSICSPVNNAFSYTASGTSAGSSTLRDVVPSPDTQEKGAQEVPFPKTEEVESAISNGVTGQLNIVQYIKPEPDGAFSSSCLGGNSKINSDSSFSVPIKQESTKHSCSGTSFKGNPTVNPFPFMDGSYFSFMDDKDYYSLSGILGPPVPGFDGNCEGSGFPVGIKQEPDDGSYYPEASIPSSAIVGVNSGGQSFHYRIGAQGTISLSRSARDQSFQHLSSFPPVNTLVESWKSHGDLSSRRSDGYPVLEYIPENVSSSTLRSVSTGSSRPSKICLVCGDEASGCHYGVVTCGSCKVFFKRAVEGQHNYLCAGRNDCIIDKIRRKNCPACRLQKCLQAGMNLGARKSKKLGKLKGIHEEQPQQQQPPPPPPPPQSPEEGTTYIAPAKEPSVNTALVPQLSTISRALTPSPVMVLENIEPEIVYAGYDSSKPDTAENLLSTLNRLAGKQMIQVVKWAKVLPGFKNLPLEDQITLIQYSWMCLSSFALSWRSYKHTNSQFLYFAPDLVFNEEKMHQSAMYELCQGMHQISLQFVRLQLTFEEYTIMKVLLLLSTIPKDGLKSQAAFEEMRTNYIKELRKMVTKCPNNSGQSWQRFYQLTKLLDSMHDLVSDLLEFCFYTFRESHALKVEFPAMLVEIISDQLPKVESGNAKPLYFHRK

[5] = molecular target: T4, human PR (progesterone receptor) (Homo sapiens, UniProt P06401); assay: Steroid hormone nuclear receptor binding assay, PR; settings: HEK293 lysate, [3H]-methyltrienolone
T4 construct: expressed in transfected cells; host or cells: HEK293
T4 sequence (P06401 1-933): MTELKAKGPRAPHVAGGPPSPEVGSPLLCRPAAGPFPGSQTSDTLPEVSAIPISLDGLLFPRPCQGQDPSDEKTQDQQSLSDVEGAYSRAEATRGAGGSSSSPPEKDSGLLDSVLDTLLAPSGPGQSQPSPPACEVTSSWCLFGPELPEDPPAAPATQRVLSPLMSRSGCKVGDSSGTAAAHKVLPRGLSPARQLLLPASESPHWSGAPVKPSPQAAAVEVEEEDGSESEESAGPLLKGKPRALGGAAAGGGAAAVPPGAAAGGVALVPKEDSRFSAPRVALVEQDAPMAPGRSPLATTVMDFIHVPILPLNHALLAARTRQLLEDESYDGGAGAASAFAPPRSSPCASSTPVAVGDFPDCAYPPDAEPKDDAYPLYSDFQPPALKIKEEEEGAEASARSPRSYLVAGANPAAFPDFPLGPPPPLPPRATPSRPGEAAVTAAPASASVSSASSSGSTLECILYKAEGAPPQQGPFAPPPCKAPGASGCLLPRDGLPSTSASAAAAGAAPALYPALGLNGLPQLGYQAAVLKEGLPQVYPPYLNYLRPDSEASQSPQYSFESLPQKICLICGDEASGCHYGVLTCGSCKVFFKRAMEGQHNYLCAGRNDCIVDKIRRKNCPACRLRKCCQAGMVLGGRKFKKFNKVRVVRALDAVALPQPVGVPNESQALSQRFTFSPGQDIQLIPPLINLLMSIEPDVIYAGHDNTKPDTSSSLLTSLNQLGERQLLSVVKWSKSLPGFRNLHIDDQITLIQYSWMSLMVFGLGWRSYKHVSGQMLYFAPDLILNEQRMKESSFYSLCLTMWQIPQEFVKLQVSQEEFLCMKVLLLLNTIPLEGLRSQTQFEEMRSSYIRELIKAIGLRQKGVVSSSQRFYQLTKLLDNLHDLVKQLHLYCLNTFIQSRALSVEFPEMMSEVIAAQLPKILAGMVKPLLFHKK

[6] = molecular target: T5, human androgen receptor (AR) (Homo sapiens, UniProt P10275); assay: C2C12 AR/ARE reporter assay; assay type: cell-based; settings: mouse myoblast C2C12 cells, luciferase reporter, 24 h
T5 construct: expressed in transfected cells; host or cells: mouse myoblast C2C12 cells
T5 sequence (P10275 1-920): T2 sequence (P10275 1-920)

[7] = HEK293 lysate, [3H]-dexamethasone, read-out: GR (Ki nM)

Row | Structure (SMILES) | Ki [1] [nM] | effect on HDL [2] | Ki [3] [nM] | Ki [1, 7] [nM] | Ki [4] [nM] | Ki [5] [nM] | EC50 [6] [µM]
1 | Cc1c(N[C@@H]2CCC[C@@]2(C)O)ccc(C#N)c1Cl (single isomer, unassigned) [Example 1] | > 6020 | minimal effect | – | – | – | – | –
2 | Cc1c(N[C@H]2CC[C@H](O)[C@]2(C)O)ccc(C#N)c1Cl (single isomer, unassigned) [Example 20] | – | – | 38.1 | > 5730 | > 7150 | > 7960 | 0.146
3 | CCc1c(NC2CCOCC2(C)O)ccc(C#N)c1Cl (single isomer, unassigned; diastereomer 2) [Example 32, 2-Chloro-3-ethyl-4-[[3-hydroxy-3-methyl-tetrahydropyran-4-yl]amino]benzonitrile, Diastereomer 2] | – | – | 162 | > 5820 | 3960 | 4290 | 0.274
